Source: patent US11931335B2, “Enhancing autophagy or increasing longevity by administration of urolithins or precursors thereof” (Amazentis SA, priority 2012, dated 2024)
Entries after “also recorded” stand apart in the source; their conditions may differ.

How the values were obtained:
[1] = tested on: C. elegans wild type (N2, Bristol); test: Mobility tracking of C. elegans during aging; assay type: in vivo; conditions: days 1, 3, 5 and 8 of adulthood; 50 μM; FIG. 12
Description: To examine the effect of urolithins on muscle activity during aging, C. elegans mobility was examined over time. Synchronized populations of wild-type nematodes were prepared by standard methods and cultivated at 20° C. on NGM agar containing E. Coli (OP50) with or without test compounds (ellagic acid (EA), urolithins A (UA), and B (UB)). At Day 0, five plates were prepared, each containing 10 young adult worms. Worms were assayed for mobility at different ages, day 1, 3, 5 and 8 of adulthood. The wild type (N2, Bristol) worm strain was employed for these studies.
For C. elegans movement tracking, 45 seconds of video were recorded using a Nikon DS-L2/DS-Fi1 camera and controller setup, attached to both a computer and a standard bright field microscope, tracking an entire plate of 10 worms, with 5 plates per condition. The movement of worms during this time was calculated using an adapted version of the freely-available software Parallel Worm Tracker for MATLAB. The total movement over the 45 second tracking was averaged across all worms for each condition. This experiment was repeated twice with between 40 and 70 worms per condition.

[2] = tested on: human primary skeletal muscle cells; test: Autophagy western blot in human primary myoblasts; assay type: cell-based; conditions: 10 μM, 20 μM, and 50 μM, 16 hours
Description: Human primary skeletal myocytes were cultured in vitro and exposed to increasing concentrations of urolithin A, including 10 μM, 20 μM, and 50 μM for 16 hours. Human skeletal myoblasts were grown in DMEM plus 2% horse serum. Control cells were treated with DMSO at an equivalent final concentration for the same period and served as the untreated control.
At the end of treatment, cells were lysed with RIPA buffer and applied to SDS-PAGE and analyzed by western blot. Protein expression levels were examined for autophagy-related proteins LC3-I and LC3-II (Cell Signaling antibody #4108), p62 (Cell Signaling antibody #5114), AMPKα (Cell Signaling antibody #2603), and p-AMPKα(Cell Signaling antibody #2531). The housekeeping protein, R-actin (Cell Signaling Antibody #4967) level was measured as a loading control.

aged C57BL/6J mice = test: Running wheel activity in aged high fat diet mice; assay type: in vivo, mouse; conditions: 50 mg/kg/day, 30 weeks, dark phase of day 2, FIG. 21
Description: To examine the effects of urolithin A treatment on motor activity in aged mammals 17-month-old C57BL/6J mice were treated with either a high fat rodent diet or a high fat rodent diet containing urolithin A mixed with food to reach a dosing of 50 mg/kg/day delivered to the mice.
Following 30 weeks of treatment with urolithin A, mice were housed individually and a 23 cm diameter running wheel was placed in the cage of each mouse. Spontaneous exercise activity was measured continuously over a two day period allowing the capture of the circadian rhythm of the exercise activity. Afterwards, mice were returned to their home cages.
Mice became habituated to the presence of the activity wheel on day 1. To measure the effect of urolithin A treatment on activity as well as muscle function, the cumulative distance that animals covered during the peak running period (dark phase) of day 2 was measured.

[3] = tested on: gastrocnemius muscles of aged C57BL/6J mice; test: Autophagy in skeletal muscle of aged mice; assay type: in vivo, mouse; conditions: 50 mg/kg/day in food, 34 weeks
Description: Locomotor activity may be also assessed by measuring animal movements using infrared detection. To determine the effects of urolithin A on spontaneous locomotor activity in aged animals, 16-month-old C57BL/6J mice were treated with either a standard rodent diet or a diet containing urolithin A mixed with food to reach a dosing of 50 mg/kg/day delivered to mice. Following 34 weeks of treatment with urolithin A, mice were placed in a locomotor activity monitoring system, TSE Systems. Infrared transmitters and receivers are placed in the x, y, and z axis. Interruption of the infrared beams in the x, y axis by the passage of the mouse, allows for a measurement of the horizontal movement (ambulation). Interruption of the infrared beams in the z axis by the mouse, allows for the measurement of rearing behavior. Each beam interruption results in one count being recorded. Total counts were measured for each 30 minute period over a two day period. The total counts observed during the 12 hour dark period, which corresponds to the time of highest activity in mice, were summed for each animal.
Following 34 weeks of treatment, the mice from Example 19 were sacrificed and the organs were collected. The gastrocnemius muscles were assessed for the presence of autophagy by the assessment of the change in the ratio of the autophagy markers LC3 and p62 using western blot analysis. Each lane corresponds to a muscle sample from an individual mouse. The ratio of LC3-II/LC3-I increased in the muscles of urolithin A (UA)-treated mice versus untreated mice. This was accompanied by a decrease in the levels of p62 in the muscles of UA treated versus untreated mice. These shifts in the levels of LC3 and p62 in the muscle of mice are consistent with an increase in the level of autophagy taking place.

[4] = tested on: undifferentiated C2C12 mouse myoblasts; test: LC3B flow cytometry in C2C12 myoblasts; assay type: cell-based; conditions: for LC3B expression (LC3B-FITC fluorescence): 10 μM, 50 μM and 100 μM, 24 hours, FIG. 25
Description: To determine the ability of urolithin A to induce autophagy in mouse muscle cells, undifferentiated C2C12 mouse myoblasts were seeded in T25 flasks and incubated overnight. Cells were incubated in 5% CO2 at 37° C. These cells were treated with one of the urolithins-urolithin A (UA), urolithin B (UB), urolithin C (UC) or urolithin D (UD)—dissolved in a 0.1% solution of DMSO for 24 hours. In one experiment UA, UB, UC and UD were dosed at a concentration of 100 μM for C2C12 myoblast treatment. In a separate study, C2C12 myoblasts were incubated at increasing concentrations of UA (10 μM, 50 μM and 100 μM). For each experiment a control culture was treated with 0.1% DMSO for the same period and served as the untreated control. In the final 30 minutes of incubation, lysosome degradation inhibitor was added to the culture. The cells were then washed with phosphate buffer solution and then treated with a 1% solution of trypsin enzyme to remove the adhesive cells from the cell culture dishes. The cells were then treated with EMD Millipore selective permeabilization reagent to permeabilize the cells so as to make the internal cellular proteins accessible to antibody treatment. Cells were then incubated with antibody to LC3B according to kit protocol (EMD Millipore FlowCellect™ Autophagy LC3 Antibody-based Assay Kit (Cat no. FCCH100171)). The cells were then washed and resuspended in the kit assay buffer. The resulting cells were then run through a flow cytometer and LC3B-FITC fluorescence was quantified to measure the level of LC3B in C2C12 cells for the various treatments. When cells undergo autophagy their intracellular levels of LC3-II increase which is detected by this method. This autophagy can be detected by fluorescent antibody labeling of LC3B, which can be measured quantitatively using flow cytometry. An increase in cellular autophagy is reflected by an increasing signal in the histogram of LC3B FITC.

O=c1oc2cc(O)ccc2c2ccc(O)cc12 [Urolithin A, urolithin A]
age related mobility decline [1]: marked ability to reduce muscle function decline | levels of p62 [2]: decrease | ratio of pAMPKα/AMPKα [2]: increasing several fold | ratio of LC3-II to LC3-I ([2]; FIG. 17): dose-dependent increase | increase in cumulative distance run (aged C57BL/6J mice): 57% | levels of p62 [3]: decreased | ratio of p-AMPKα/AMPKα [3]: increase | ratio of LC3-II/LC3-I ([3]; FIG. 24): increased | levels of p62 ([3]; listed as UA): decrease | LC3B expression (LC3B-FITC fluorescence) [4]: dose dependent | LC3B expression (LC3B-FITC fluorescence) ([4]; listed as UA): dose response | LC3B signal (shift of the histogram) ([4]; 100 μM, 24 hrs, FIG. 26, listed as UA): increasing signal of LC3B; also recorded: increase in autophagy
